Assay [1] has as its system PPARδ target genes (PDK4, CPT1b, UCP2) in murine myocytes. In words: Expression of PPARδ target genes in murine myocytes (differentiated C2C12 cells). The assay is classed as cell-based. Particulars: 24 hours, Cpd 7 at 0.1, 1, 10 μM, Cpd 24 at 0.2, 2, 20 μM, normalized to 36B4. The method, then: The PPARδ agonist properties previously measured in vitro were evaluated by measuring, in murine myocytes, the expression of genes involved in lipid and carbohydrate metabolism and energy expenditure (PDK4, CPT1b, UCP2). Regulation of expression of these genes, in this cell type, is a direct consequence of the activation of PPARδ by the compounds according to the invention. The greater the increase in expression of the genes, the more the compound according to the invention is a stimulator of metabolism in muscle cells (Dressel U et al., 2003).
The C2C12 murine cells (from ECACC) are cultivated in DMEM medium (Gibco; 41965-039) supplemented with 1% L-glutamine (Gibco; 25030), 1% penicillin/streptomycin (VWR; BWSTL0022/100) and 10% decomplemented fetal calf serum (FCS. Gibco; 10270-106).
The cells are seeded in 24-well plates at a density of 50×10^3 cells/well. At confluence, the medium is replaced with a differentiation medium (base culture medium supplemented with 2% of horse serum (Gibco; 26050-088)) then culture is continued at 37° C. and 5% CO2 for 7 days in order to permit differentiation of the myoblasts into myocytes.
After 6 days of differentiation, the cells are put in a deprivation medium (base culture medium without serum) for 6 hours. The cells are then treated with the compounds according to the invention in the deprivation medium. The compounds according to the invention were tested at doses of 0.1, 1, 10 μM and 0.2, 2 and 20 μM respectively. The compounds according to the invention were dissolved in dimethylsulfoxide (DMSO, Sigma; D5879). The cells are treated for 24 hours at 37° C., 5% CO2. The effects for the compounds tested were compared with the effect of DMSO alone at a concentration of 0.1%.
These procedures were performed on the cells essentially as described in Example 10 (point c) of the Protocols.
The following primer pairs specific to the genes investigated were used: […]

Assay [2] deals with db/db mouse. In words: Glucose tolerance test in the db/db mouse. The settings on record: 30 mpk, treated 9 days, oral glucose 1 g/kg after fasting. It is filed as in vivo. The method, then: (§1) The aim of this study is to evaluate in vivo the antidiabetic character of the compounds according to the invention, in the db/db mouse (Berger J et al., 1996). The antidiabetic effect of the compounds is evaluated by measuring glycemia and insulinemia after 8 days of treatment. In diabetic animals (as in humans), administration of glucose leads to a significant increase in the plasma level of insulin. This induced hyperinsulinemia causes a lowering of glycemia, which is delayed in insulin-resistant animals, for example in the db/db mouse.
After 9 days, the animals were deprived of food for 16 hours before carrying out the glucose tolerance test. The latter consists of a single administration of glucose after fasting (administered orally at a dose of 1 g/kg). Blood samples were then taken from time to time to study the evolution of plasma glycemia.
(§2) Glucose was determined by enzyme assays (bioMérieux-Lyons-France) according to the suppliers recommendations.

The subject of assay [3] is db/db mouse. As to the kind of experiment: Antidiabetic character in the db/db mouse: plasma glycemia, insulinemia, HOMA index. The assay is classed as in vivo. The settings on record: 30 mpk oral, 8 days. Here is the method: as §1
Male db/db mice (CERJ—Le Genest St Isle-France) are used for this experiment. After acclimation for one week, the mice were weighed and put into groups of 8 animals, selected in such a way that the distribution of their bodyweight and of their fasting glycemia determined for the first time before the experiment are uniform. The compound tested was suspended in carboxymethylcellulose (Sigma C4888) and administered by stomach tube, at a rate of once a day for 9 days at the chosen dose. The animals had free access to water and food (standard diet) and were housed in ventilated cages with a rhythm of light and darkness of 12 hours/12 hours at a constant temperature of 20±3° C. The food intake and weight gain were recorded throughout the experiment. After administration of the compound for 8 days, a blood sample was taken by puncture in the retro-orbital sinus of the animals under volatile anesthesia with isoflurane in order to measure the plasma concentrations of glucose and insulin.
Assay of murine insulin is carried out by the Elisa method (Insulin Elisa Kit-Crystal Chem. USA). A mouse anti-insulin antibody is fixed on a microplate. The serum to be assayed for insulin is then deposited on this plate. A guinea pig anti-insulin antibody will recognize the insulin/mouse monoclonal anti-insulin antibody complex and bind to it. […]
as §2

The values below come from US8461183B2, “PPAR agonist compounds, preparation and uses” (Genfit, priority 2008, dated 2013).

For `COc1nc(-c2ccc(C(F)(F)F)cc2)ccc1COc1ccc(OCC(=O)O)cc1` [Cpd 24, 2-(4-((2-methoxy-6-(4-(trifluoromethyl)phenyl)pyridin-3-yl)methoxy)-phenoxy)ethanoic acid], in assay [1], the “expression of CPT1b” value is reported as “significant effects of stimulating expression”, the “expression of PDK4” value is listed as “significant effects of stimulating expression” and the “expression of UCP2” value is reported as “significant effects of stimulating expression”. The “glucose tolerance test (insulin resistance)” value in the assay on db/db mouse [2] is recorded as “marked decrease in insulin resistance”. Further, in the assay with db/db mouse [3], the “glycemic profile (plasma glucose)” value is “overall improvement” and the “insulinemic profile (plasma insulin)” value is recorded as “overall improvement”. The HOMA index result with db/db mouse [3] (calculated from plasma glucose and insulin) is “decrease”.
